ChEMBL document CHEMBL4396867, “Identification of 5-Substituted 2-Acylaminothiazoles That Activate Tat-Mediated Transcription in HIV-1 Latency Models” (J Med Chem, 2019)
≈ marks a conversion by molar mass, not a printed value.

Assays:
[1] = Aqueous solubility of the compound in 0.01M HCl at pH 2 by nephelometry; type: physicochemical
[2] = Aqueous solubility of the compound in phosphate buffer at pH 6.5 by nephelometry; type: physicochemical

Row | SMILES | solubility kinetic [1] [µM] | solubility kinetic [2] [µM]
1 | Cc1cnc(NC(=O)CCCOc2ccccc2)s1 | 1.1 to 2.3 (≈ 0.304 to 0.636 µg/mL) | < 1.1
2 | N#Cc1cnc(NC(=O)CCCOc2cccc(Cl)c2)s1 | < 1.6 | < 1.6
3 | N#Cc1cnc(NC(=O)CCCOc2ccccc2)s1 | 1.1 to 2.2 (≈ 0.316 to 0.632 µg/mL) | 1.1 to 2.2 (≈ 0.316 to 0.632 µg/mL)
4 | Cc1cnc(NC(=O)CCCOc2cccc(C#N)c2)s1 | < 1.1 | < 1.1
5 | CC(C)c1cnc(NC(=O)CCCOc2ccccc2)s1 | < 1.2 | < 1.2
6 | Cc1cnc(NC(=O)CCCOc2cccc(Cl)n2)s1 | < 1.2 | < 1.2
7 | Cc1cnc(NC(=O)NCCOc2ccc(Cl)c(C)c2)s1 | 1.6 to 3.1 (≈ 0.521 to 1.01 µg/mL) | < 1.6
8 | Cc1cnc(NC(=O)CCCOc2cncc(Cl)c2)s1 | 1.6 to 3.1 (≈ 0.499 to 0.967 µg/mL) | 3.1 to 6.3 (≈ 0.967 to 1.96 µg/mL)
9 | Cc1cnc(NC(=O)CCCOc2cccc(C(F)(F)F)c2)s1 | < 1.1 | < 1.1

Results, then the compound that gave them:

Row | solubility kinetic [1] [µM] | solubility kinetic [2] [µM] | SMILES
10 | < 1.2 | < 1.2 | O=C(CCCOc1ccccc1)Nc1ncc(Cl)s1
11 | < 1.6 | < 1.6 | O=C(CCCOc1cccc(C(F)(F)F)c1)Nc1ncc(C(F)(F)F)s1
12 | < 1.6 | < 1.6 | N#Cc1cnc(NC(=O)CCCOc2cccc(C(F)(F)F)c2)s1
13 | < 1.1 | < 1.1 | Cc1cnc(NC(=O)CCCOc2cccc(Cl)c2)s1
